Measurements as given in US10899776B2, “Antiviral and antibacteria agents based on quaternary ammonium compound complexed with boric acid and its derivatives” (B-Organic Films Corp, priority 2015, dated 2021).
Where two headings read alike, the source gives them in different places.

Test system: L. vannamei shrimp gene expression
Procedure: RNA is extracted using TRIzol® and the Qiagen RNeasy® Mini Kit (Qiagen, Germantown, Md., USA). Shrimp samples immersed in TRIzol® are placed in the FastPrep®-24 (MP Biomedicals LLC, Solon, Ohio, USA) and homogenized during 4° C. for 40 s pulses at 6 m/s. A volume of 200 μL of chloroform is added to a 1.5 mL RNase free tube containing the homogenate material and inverted 15 times. Samples are incubated at room temperature for 3 min before centrifuged at 8000 g for 15 min at 4° C. using the Eppendorf centrifuge. The supernatant is carefully transferred into a new 1.5 mL RNase free tube and the extraction continued following the manufacturer's protocol.
The quality and quantity of RNA are determined by the NanoDrop™ 1000 spectrophotometer (Thermo Fisher Scientific, Waltham, Mass., USA) and Bio-Rad™ (Bio-Rad, Hercules, Calif., USA) using denatured gel electrophoresis with formaldehyde and buffer MOPS 1× (Sambrook, J. 1989. in: «Molecular cloning—a laboratory manual, 2nd ed». J. Sambrook, E. F. Fritsch, T. Maniatis Eds. Cold Spring Harbor, N.Y.: Cold Spring Harbor Laboratory Press).
Microarrays are designed based on publically available gene sequences and ESTs determined from cDNA libraries representing multiple tissues of male and female L. vannamei shrimp, and/or of various physiological conditions.
In total, a length of oligonucleotides about of 61440-mer is included in this study: 39592 shrimp ESTs; 1216 Quality control spots; 112 positive control Alexa-555 dye; 80 positive control Alexa 647 dye; 20320 Unigenes; 16 astringent positive control alexa-555: 16 astringent positive control Alexa-647 dye and 88 negative control empty are submitted to the MYcroarray (University of Michigan, Chemical Engineering Department) for printing on aminosaline glass slides. The exposure and reference sample RNAs are adjusted to final volume 19 μL with oligo d(T) (2 μg/μL) and random primers. (1 μg/μL) in water molecular biology grade. The samples are incubated at 70° C. for 10 min and are then chilled in ice. The samples are mixed finally with 5× Reaction Buffer Superscript II kit (Invitrogen, Life technologies, Carlsbad Calif., USA): 25 mM MgCl2; aminoallyl-dNTP with dUTP (3:1); 0.1 M DTT and 200 U/μL Superscript II Reverse Transcriptase. The mix is incubated at 25° C. for 10 min and then at 42° C. for 2 hours. RNA hydrolysis is made with 5 μL of NaOH 1 N and 1 μL of EDTA 0.5 M. The mixture is incubated at 65° C. for 10 min, and then added 25 μL of HEPES 1 M at pH 7.5. […] The aminoallyl-DNA (aa-DNA) is purified using QIAquick™ (Qiagen, Duesseldorf, Germany). A volume of 7 μL of sodium acetate 3 M and 400 μL binding buffer supplied by the Kit are added. The mixture is allowed to stand 5 min according to the manufacturer's instructions for purification. The eluted aa-DNA is concentrated in a Vacufuge™ until dry and is resuspended in 4.5 μL of sodium bicarbonate 100 mM (pH 9.0). The reaction is conducted in darkness at room temperature overnight. The aa-DNA labeled is purified using QIAquick™ (Qiagen, Duesseldorf, Germany) and eluted with 50 uL water. The aa-DNA labeled is quantified in a Nanodrop™ 1000 spectrophotometer (Thermo Fisher Scientific, Waltham, Mass., USA).
After completely drying in a Vacufuge concentrator, the aa-DNA labeled is resuspended in hybridation mixture containing: ˜0.1 optical density units of aa-DNA labeled from each sample; SSC (5×) buffer; 0.1% SDS; 1× buffer TE. The hybridation mixture is desaturated at 94° C. for 5 min and finally at 65° C. for 30 s. The mixture is placed in the microarray slide previously placed in a chamber for microarray hybridization and covered using a RNase-free plastic coverslip (Hybrislip, Schleicher & Schuell, HS40—40×22 mm; HS22—22×22 mm via Thomas Scientific). The hybridation chamber is incubated at 42° C. overnight.
The slide is placed in a 50 mL conical tube for the first wash and a volume of 50 mL of SSC (1×) buffer and of SDS 0.05% are added for 1 min.

[1] = 2-Down regulated genes, feed 5 mg/g
[2] = 2-Up regulated genes, feed 5 mg/g
[3] = 2-fold Down-regulated genes (treated) versus all genes
[4] = 2-fold Up-regulated genes (treated) versus all genes
[5] = diets supplemented with the complex
[6] = feed 5 mg/g, 14 days, of 262 2-fold Down-regulated genes
[7] = feed 5 mg/g, 14 days, of 583 2-fold Up-regulated genes
[8] = treated vs control shrimp, 57,193 spots available to analysis

## C[N+](C)(C)CCOB1OB2OB(O1)OB1OB(O2)O1.[Cl-] [choline/pentaborate complex]
[1]
  # Enzymes, Aminoacyl-tRNA biosynthesis: 3
  # Enzymes, Ascorbate and aldarate metabolism: 2
  # Enzymes, Glycolysis/Gluconeogenesis: 3
  # Enzymes, Oxidative phosphorylation: 4
  # Enzymes, Pentose and glucuronate interconversions: 2
  # Enzymes, Pentose phosphate pathway: 5
  # Enzymes, Phenylalanine metabolism: 1
  # Enzymes, Phenylpropanoid biosynthesis: 1
  # Enzymes, Purine metabolism: 3
  # Enzymes, Starch and sucrose metabolism: 2
  # Genes, Aminoacyl-tRNA biosynthesis: 3
  # Genes, Ascorbate and aldarate metabolism: 3
  # Genes, Glycolysis/Gluconeogenesis: 3
  # Genes, Oxidative phosphorylation: 6
  # Genes, Pentose and glucuronate interconversions: 3
  # Genes, Pentose phosphate pathway: 5
  # Genes, Phenylalanine metabolism: 3
  # Genes, Phenylpropanoid biosynthesis: 3
  # Genes, Purine metabolism: 4
  # Genes, Starch and sucrose metabolism: 5
[2]
  # Enzymes, Amino sugar and nucleotide Sugar metabolism: 7
  # Enzymes, Cytochrome P450: 3
  # Enzymes, Glutathione metabolism: 5
  # Enzymes, Glycolysis: 8
  # Enzymes, Oxidative phosphorylation: 6
  # Enzymes, Pentose phosphate pathway: 4
  # Enzymes, Purine metabolism: 7
  # Enzymes, Pyruvate metabolism: 6
  # Enzymes, Valine, leucine and isoleucine degradation: 6
  # Genes, Amino sugar and nucleotide Sugar metabolism: 8
  # Genes, Cytochrome P450: 6
  # Genes, Glutathione metabolism: 7
  # Genes, Glycolysis: 8
  # Genes, Oxidative phosphorylation: 18
  # Genes, Pentose phosphate pathway: 5
  # Genes, Purine metabolism: 14
  # Genes, Pyruvate metabolism: 6
  # Genes, Valine, leucine and isoleucine degradation: 6
[3]
  Fisher's exact test GO term Extracellular region part: 5.69%
  Fisher's exact test GO term Gas transport: 2.03%
  Fisher's exact test GO term Oxygen transporter activity: 2.03%
  Fisher's exact test GO term Photoreceptor cell differentiation: 2.43%
  Fisher's exact test GO term Regulation of protein metabolic process: 10.56%
  Fisher's exact test GO term Starch metabolic process: 2.03%
  Fisher's exact test GO term Sucrose metabolic process: 2.03%
  Fisher's exact test GO term Toll-like Receptor for signaling pathway: 1.62%
  Fisher's exact test GO term Translation factor activity, nucleic acid binding: 4.47%
  Fisher's exact test GO term Transporter activity: 10.56%
  Fisher's exact test GO term extracellular region: 9.75%
  Fisher's exact test GO term extracellular space: 4.87%
[4]
  Fisher's exact test GO term Actin Cytoskeleton: 4.62%
  Fisher's exact test GO term Calcium Ion Binding: 4.25%
  Fisher's exact test GO term Cytoskeletal Protein Binding: 5.55%
  Fisher's exact test GO term Hydrogen Transport: 4.81%
  Fisher's exact test GO term Ion Transport: 8.15%
  Fisher's exact test GO term Monosaccharide Metabolic Process: 4.10%
  Fisher's exact test GO term Monovalent Inorganic Cation Transport: 5.92%
  Fisher's exact test GO term Positive Regulation of Biosynthetic Process: 3.70%
  Fisher's exact test GO term Positive Regulation of Cellular Biosynthetic Process: 3.70%
  Fisher's exact test GO term Proton Transport: 4.81%
2-fold Up-regulated, GO term 0006955, feed 5 mg/g, 14 days
  number of immune related genes that are over-expressed: at least 33
[5]
  number of modulated genes associated to Biogenesis: 59
  number of modulated genes associated to Biological regulation: 73
  number of modulated genes associated to Cellular process: 159
  number of modulated genes associated to Developmental process: 40
  number of modulated genes associated to Localization: 66
  number of modulated genes associated to Metabolic process: 166
  number of modulated genes associated to Response to stimuli: 43
  number of modulated genes associated to Signaling: 26
Feed 5 mg/g, 14 days
  number of 2-fold Up-regulated genes: 583
  number of genes with a 2-fold Down-regulated expression: 262
[6]
  Down-regulated genes in biological process Biological Regulation: 9%
  Down-regulated genes in biological process Cellular Component Organization or Biogenesis: 7%
  Down-regulated genes in biological process Cellular Process: 20%
  Down-regulated genes in biological process Developmental Process: 5%
  Down-regulated genes in biological process Localization: 8%
  Down-regulated genes in biological process Metabolic Process: 20%
  Down-regulated genes in biological process Multicellular Process: 6%
  Down-regulated genes in biological process Response to Stimulus: 5%
  Down-regulated genes in biological process Signaling: 3%
  Down-regulated genes in biological process Single-organism Process: 17%
  Down-regulated genes with molecular function Binding: 44%
  Down-regulated genes with molecular function Catalytic Activity: 40%
  Down-regulated genes with molecular function Enzyme Regulator Activity: 3%
  Down-regulated genes with molecular function Structural Molecule Activity: 4%
  Down-regulated genes with molecular function Transporter Activity: 9%
[7]
  Up-regulated genes in biological process Biological Regulation: 9%
  Up-regulated genes in biological process Cellular Component Organization or Biogenesis: 7%
  Up-regulated genes in biological process Cellular Processes: 20%
  Up-regulated genes in biological process Developmental Process: 6%
  Up-regulated genes in biological process Localization: 7%
  Up-regulated genes in biological process Metabolic Process: 18%
  Up-regulated genes in biological process Multicellular Organismal Process: 6%
  Up-regulated genes in biological process Response to Stimulus: 6%
  Up-regulated genes in biological process Signaling: 4%
  Up-regulated genes in biological process Single-organism Process: 17%
  Up-regulated genes with molecular function Binding Activity: 44%
  Up-regulated genes with molecular function Catalytic Activity: 43%
  Up-regulated genes with molecular function Structural Molecule Activity: 6%
  Up-regulated genes with molecular function Transporter Activity: 7%
[8]
  Number of spots, Expression Levels (Score) 1 to 1.5: 3,662
  Number of spots, Expression Levels (Score) 1.5 to 2: 1,984
  Number of spots, Expression Levels (Score) <−2: 1,434
  Number of spots, Expression Levels (Score) >2: 1,650
  Number of spots, Expression Levels (Score) −1.5 to −1: 3,221
  Number of spots, Expression Levels (Score) −1.5 to −2: 1,259
  Number of spots, No regulated genes (−1 to 1): 43,950
